Test results: US20070259966A1, “Coadministration of Radiation, Efaproxiral Sodium, and Supplemental Oxygen for the Treatment of Cancer” (ALLOS THERAPEUTICS, INC., priority 2004, published 2007)

Key:
hemoglobin = target: T1, hemoglobin (Homo sapiens, UniProt P68871+P69905); assay: Predicted p50 shift from RBC concentration; assay type: in vivo; conditions: at RBC concentration >483 μg/ml
T1 construct: endogenous in cells; host or cells: red blood cells of treated patients (in vivo)
Procedure: Sometimes, efaproxiral sodium is represented by the name 2-[4-[2-[(3,5-dimethylphenyl)amino]-2-oxoethyl]phenoxy]-2-methylpropanoic acid. In general efaproxiral sodium is administered as a physiologically acceptable salt, such as the monosodium salt; that is, X+ is Na+. Efaproxiral sodium induces allosteric modification of hemoglobin, such that its binding affinity for oxygen is decreased, resulting in increased oxygen distribution to tissues by erythrocytes.
(§1) Plasma and red blood cell (RBC) drug concentration were assayed on 2 days during the course of efaproxiral sodium administration: WBRT day 1 (end-infusion) and on 1 single day between WBRT days 6 and 10 (pre-infusion and end-infusion assays). Regression analysis was used to explore the relationship between trough and peak concentrations and continuous clinical covariates (eg, age, serum albumin, hematocrit, serum creatinine, etc). […] A dose of efaproxiral sodium was considered predicatably therapeutic if it achieved a sufficient RBC concentration (>483 μg/ml), and corresponded to a predicted p50 shift of 10 mmHg.

[1] = Plasma and red blood cell (RBC) drug concentration; assay type: in vivo, human
Procedure: as §1

[2] = system: patients with brain metastases; assay: Quality of life: Karnofsky Performance Status (KPS); assay type: in vivo, human
Procedure: (§2) C. Quality of Life. Quality of life was determined by means of the Spitzer Questionnaire (SQ) and Karnofsky Performance Status (KPS) assessment. The tests were performed at baseline, at WBRT day 10, and at all routine follow-up visits. A sustained drop in the KPS score to less than 60 was defined as a significant drop. The 5 questions comprising the Spitzer Questionnaire were weighted evenly. For each evaluation with at least 3 out of 5 questions answered, an average score was computed for each patient. Questionnaires with fewer than 3 questions answered were treated as missing data. The protocol specified a sustained drop in the Spitzer Questionnaire score of 2 points constituted a significant drop.

[3] = system: patients with brain metastases; assay: Safety / treatment-emergent adverse events in the controlled study; assay type: in vivo, human
Procedure: Depending upon an individual patient's resaturation time (time required to recover to a stable ≧90% SpO2 on room air) following efaproxiral sodium plus WBRT, supplemental oxygen use may be required for as little as 30 minutes to more than 4 hours. […] During this period of decreased oxygen saturation, patients require continuous SpO2 monitoring. If the desired SpO2 of ≧90% while breathing room air is not achieved, supplemental oxygen is to be continued and increased to a flow of 6-8 L/min, if necessary, until the SpO2 while breathing room air is stabilized at ≧90%.
Patients with brain metastases were administered efaproxiral sodium in a total dose of 0-100 mg/kg per day based on the dosing guidelines detailed above. In general, efaproxiral sodium is administered by intravenous infusion through a central venous access device over 30 minutes at a dose of 75 or 100 mg/kg daily with concurrent supplemental oxygen. Oxygen must be administered at 4 L/min via nasal cannula or facemask beginning 5 minutes prior to initiation of infusion, during infusion and WBRT, and for at least 15 minutes after completion of daily WBRT. Efaproxiral sodium is administered every day of a fractionated course of WBRT. Except when contraindicated, WBRT must be administered within 30 minutes of the end of the efaproxiral sodium infusion.
The patients were given the drug in one dose. Efaproxiral sodium was administered via central venous access with flow rate controlled by volumetric pump over a 30-45 minute interval with end-infusion no longer than 30 minutes prior to each radiation dose of a 10-day course of WBRT. Efaproxiral sodium was formulated as a sterile solution for injection and was supplied in single-use glass bottles containing 10 g efaproxiral sodium in 500 mL of 0.225% NaCl at a concentration of 20 mg/mL. Efaproxiral sodium was administered during the 10-day course of WBRT, for a maximum of 10 doses. A control group received radiation and supplemental oxygen only.
The majority of treatment-emergent adverse events were Grade 1 or 2 in severity, resolved spontaneously or within the duration of the study, and responded well to concomitant treatment with antiemetics for nausea/vomiting, nonsteroidal anti-inflammatory drugs for headache, supplemental oxygen for hypoxemia. […] Muscle weakness and dyspnea (reported in 3% of patients) were the most commonly reported Grade 3 adverse events in Control patients and both events were reported as a Grade 4 event in 1 patient each. The most commonly reported Grade 4 adverse event in both treatment and control groups was disease progression (reported in 6% of both groups).

[4] = system: patients with brain metastases; assay: Quality of life: Spitzer Questionnaire (SQ); assay type: in vivo, human
Procedure: as §2

T1 sequence (P69905 2-142 limits assumed): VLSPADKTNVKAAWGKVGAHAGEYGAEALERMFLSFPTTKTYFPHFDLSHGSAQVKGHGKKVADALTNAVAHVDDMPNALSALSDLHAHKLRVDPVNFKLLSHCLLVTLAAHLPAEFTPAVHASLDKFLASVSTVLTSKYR
T1 sequence (P68871 2-147 limits assumed): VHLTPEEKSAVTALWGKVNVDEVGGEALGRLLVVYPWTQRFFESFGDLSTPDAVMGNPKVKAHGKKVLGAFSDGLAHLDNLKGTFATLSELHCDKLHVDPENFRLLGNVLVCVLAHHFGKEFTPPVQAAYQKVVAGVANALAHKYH

Cc1cc(C)cc(NC(=O)Cc2ccc(OC(C)(C)C(=O)O)cc2)c1 [efaproxiral sodium, 2-[4-(((3,5-dimethylanilino)carbonyl)methyl)phenoxy]-2-methylpropionic acid]
predicted p50 shift (hemoglobin): 10 mmHg
drug accumulation in RBCs ([1]; WBRT week 2 preinfusion concentrations): No clinically relevant drug accumulation
concentrations in RBCs, higher body weight versus low weight patients ([1]; at a given dose): higher
concentrations in RBCs, breast primary versus NSCLC and other primary patients ([1]; in vivo): higher
change of concentrations in RBCs with dose ([1]; patients dosed at 75 or 100 mg/kg): proportional increase
patients with stable or improving KPS scores, (%) ([2]; 1 month): (44) %
patients with stable or improving KPS scores, (%) ([2]; 3 months): (24) %
patients with stable or improving KPS scores, (%) ([2]; 6 months): (18) %
patients with stable or improving KPS scores, (%) ([2]; 12 months): (7) %
distribution of KPS score categories between treatment groups ([2]; breast primary, 6 months and 1 year (p=0.0046 and p=0.0070)): statistically significant difference
percentage of patients with stable or improving KPS scores over time versus Control ([2]; χ2=9.0096, p=0.0027): highly statistically significant
Grade 4 hypoxemia ([3]; in vivo): no Grade 4 hypoxemia was reported
severity of the majority of treatment-emergent adverse events ([3]; in vivo): Grade 1 or 2
duration of supplemental oxygen required after completion of WBRT ([3]; majority of doses, patients with brain metastases from breast cancer): one hour or less
Grade 3 hypoxemia, patients reporting ([3]; most commonly reported Grade 3 adverse event): 11%
Grade 4 disease progression, patients reporting ([3]; most commonly reported Grade 4 adverse event): 6%
patients with stable or improving SQ scores, (%) ([4]; 1 month): (42) %
patients with stable or improving SQ scores, (%) ([4]; 3 months): (23) %
patients with stable or improving SQ scores, (%) ([4]; 6 months): (16) %
patients with stable or improving SQ scores, (%) ([4]; 12 months): (9) %
percentage of patients with stable or improving SQ scores over time versus Control ([4]; χ2=3.4675, p=0.0626): trend toward a higher percentage
